Experimental data: patent US20260258032A1, “TYROSINE KINASE 2 INHIBITORS AND USES THEREOF” (BIOGEN MA INC., priority 2022, published 2026)
pIC50: −log10 of the molar value. Counter-ions that a name gives are not always drawn.

How the values were obtained:
JH2 domain of human Tyk2 = target: T1, JH2 domain of human Tyk2 (Homo sapiens, UniProt P29597); assay: JH2 biochemical assay (TR-FRET probe displacement); type: binding
T1 construct: 10×His-tagged TYK2 JH2 domain (amino acid 575-876)
In short: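 10×His-tagged human TYK2 JH2 (aa 575-876, 2 nM) incubated 60 min with 2 nM fluorescent probe, 0.1 nM Tb anti-His antibody and compound (10-point 3-fold series from […] top). TR-FRET 520/495 nm ratio, falling with probe displacement, normalized and fitted to a 4-parameter logistic for IC50.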

[1] = test system: Tyk2 kinase activity on STAT4; assay: pSTAT4 cell assay (MSD, NK92 cells); type: cell-based; conditions: compounds 1 hr
In short: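 Serum-starved NK92 cells were preincubated 1 hr with compound (10-point, four-fold dilutions from 10 μM), then stimulated with 30 ng/mL IL2 for 15 minutes. Lysates were read on an MSD plate assay using anti-STAT4 antibodies, and IC50 came from a 4-parameter logistic fit of normalized percent activity.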

[2] = TR-FRET probe displacement, JH2 domain of human Tyk2

T1 sequence (P29597 575-876): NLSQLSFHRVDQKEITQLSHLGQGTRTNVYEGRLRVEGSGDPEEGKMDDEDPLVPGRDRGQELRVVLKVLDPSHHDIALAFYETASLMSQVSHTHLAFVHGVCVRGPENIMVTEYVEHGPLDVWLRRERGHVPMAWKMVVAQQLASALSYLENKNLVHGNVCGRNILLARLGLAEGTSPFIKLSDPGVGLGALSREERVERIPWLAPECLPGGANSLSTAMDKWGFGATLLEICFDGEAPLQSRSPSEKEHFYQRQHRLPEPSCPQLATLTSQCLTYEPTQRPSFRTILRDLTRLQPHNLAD

SMILES | pIC50 (JH2 domain of human Tyk2; JH2 biochemical assay) | pIC50 ([1]; stimulated 15 minutes) | pIC50 (JH2 domain of human Tyk2; [2]) | pIC50 ([1]; then stimulated 15 minutes)
COC1CCN(c2nc(C)cc(N3CC4(CC4)c4cnc(NC(C)=O)cc43)n2)C1 (stereo not shown) [Example 137, N-(1′-(2-(3-methoxypyrrolidin-1-yl)-6-methylpyrimidin-4-yl)-1′,2′-dihydrospiro[cyclopropane-1,3′-pyrrolo[3,2-c]pyridin]-6′-yl)acetamide] | ≥ 8.00 | 6.00 to 7.00 | – | –
COC1(C)CN(c2nc(C)cc(N3CC4(CC4)c4cnc(NC(C)=O)cc43)n2)C1 [Example 234, N-(1′-(2-(3-methoxy-3-methylazetidin-1-yl)-6-methylpyrimidin-4-yl)-1′,2′-dihydrospiro[cyclopropane-1,3′-pyrrolo[3,2-c]pyridin]-6′-yl)acetamide] | 7.00 to 8.00 | 6.00 to 7.00 | – | –
CCC1(C#N)CN(c2nc(C)cc(N3CC4(CC4)c4cnc(NC(C)=O)cc43)n2)C1 [Example 219, N-(1′-(2-(3-cyano-3-ethylazetidin-1-yl)-6-methylpyrimidin-4-yl)-1′,2′-dihydrospiro[cyclopropane-1,3′-pyrrolo[3,2-c]pyridin]-6′-yl)acetamide] | 7.00 to 8.00 | 6.00 to 7.00 | – | –
COCCOc1ccnc(N2CC3(CC3)c3cnc(NC(C)=O)cc32)n1 [Example 99, N-(1′-(4-(2-methoxyethoxy)pyrimidin-2-yl)-1′,2′-dihydrospiro[cyclopropane-1,3′-pyrrolo[3,2-c]pyridin]-6′-yl)acetamide] | 7.00 to 8.00 | ≤ 6.00 | – | –
CCOC(=O)C(F)(F)c1nc(C)cc(N2CC3(CC3)c3cnc(NC(C)=O)cc32)n1 [Example 281, Ethyl 2-(4-(6′-acetamidospiro[cyclopropane-1,3′-pyrrolo[3,2-c]pyridin]-1′(2′H)-yl)-6-methylpyrimidin-2-yl)-2,2-difluoroacetate] | 6.00 to 7.00 | ≤ 6.00 | – | –
CC(=O)Nc1cc2c(cn1)C1(CC1)CN2c1cc(C)nc(C(F)(F)F)n1 [Example 61, N-(1′-(6-methyl-2-(trifluoromethyl)pyrimidin-4-yl)-1′,2′-dihydrospiro[cyclopropane-1,3′-pyrrolo[3,2-c]pyridin]-6′-yl)acetamide] | 7.00 to 8.00 | ≤ 6.00 | – | –
CC(=O)Nc1cc2c(cn1)C1(CC1)CN2c1cc(C)cc(N2CCNC(CCO)C2)n1 (stereo not shown) [Example 212, N-(1′-(6-(3-(2-hydroxyethyl)piperazin-1-yl)-4-methylpyridin-2-yl)-1′,2′-dihydrospiro[cyclopropane-1,3′-pyrrolo[3,2-c]pyridin]-6′-yl)acetamide trifluoroacetate] | 6.00 to 7.00 | ≤ 6.00 | – | –
COCCn1cc(-c2cc(N3CC4(CC4)c4cnc(NC(C)=O)cc43)nc(C(C)(F)F)n2)cn1 [Example 394, N-(1′-(2-(1,1-difluoroethyl)-6-(1-(2-methoxyethyl)-1H-pyrazol-4-yl)pyrimidin-4-yl)-1′,2′-dihydrospiro[cyclopropane-1,3′-pyrrolo[3,2-c]pyridin]-6′-yl)acetamide] | – | – | ≥ 8.00 | ≥ 8.00
CC(=O)Nc1cc2c(cn1)C1(CC1)CN2c1cc(-c2cn[nH]c2)nc(C(C)(F)F)n1 [Example 395, N-(1′-(2-(1,1-difluoroethyl)-6-(1H-pyrazol-4-yl)pyrimidin-4-yl)-1′,2′-dihydrospiro[cyclopropane-1,3′-pyrrolo[3,2-c]pyridin]-6′-yl)acetamide trifluoroacetate] | – | – | ≥ 8.00 | 7.00 to 8.00
CC(=O)Nc1cc2c(cn1)C1(CC1)CN2c1cc(C)nc(N2CC(O)C2)n1 [Example 237, N-(1′-(2-(3-hydroxyazetidin-1-yl)-6-methylpyrimidin-4-yl)-1′,2′-dihydrospiro[cyclopropane-1,3′-pyrrolo[3,2-c]pyridin]-6′-yl)acetamide] | 7.00 to 8.00 | ≤ 6.00 | – | –
CC(=O)Nc1cc2c(cn1)C1(CC1)CN2c1cc(C)cc(-c2cnn(C(C)C)c2)n1 [Example 263, N-(1′-(6-(1-isopropyl-1H-pyrazol-4-yl)-4-methylpyridin-2-yl)-1′,2′-dihydrospiro[cyclopropane-1,3′-pyrrolo[3,2-c]pyridin]-6′-yl)acetamide trifluoroacetate] | 7.00 to 8.00 | ≤ 6.00 | – | –
